Reference: US20250134907A1, “FUSED DIAZEPINES AS AGONISTS OF THE INSULIN-LIKE 3 (INSL3) PEPTIDE RECEPTOR RXFP2 AND METHODS OF USE THEREOF” (The United States of America,as represented by the …, priority 2022, published 2025)

Assays:
RXFP2 [1] = target: T1, RXFP2 (Homo sapiens, UniProt Q8WXD0); assay: Luciferase cAMP assay in HEK-CRE-Luc-RXFP2 cells; assay type: cell-based
T1 construct: expressed in transfected cells
Experimental: A confirmatory cAMP assay was done to eliminate false positives using a HEK293T-CRE-Luc cell line stably transfected with RXFP2 (HEK-CRE-Luc-RXFP2), as this cell line expresses luciferase under the control of the cAMP response element (CRE). Activation of the RXFP2 receptor increases intracellular cAMP levels, inducing luciferase transcription in the nucleus. Thus, luciferase activity in these cells is proportional to cAMP accumulation. For this assay, cells were seeded in 96-well flat-bottom opaque plates at 20,000 cells/well in 60 μL/well of serum-free DMEM medium and allowed to attach overnight at 37° C., 5% CO2. The next morning, cells were treated with 1 μL/well of compound (25 μM-0.21 nM), 1 μM forskolin, or DMSO vehicle. Cells were also treated with 4 μL of INSL3 (100-0.01 nM) (Phoenix Pharmaceuticals, Burlingame, CA) or vehicle serum-free DMEM. Cells were incubated with the treatments for 3 hours at 37° C., 5% CO2, then rested 30 minutes at room temperature for equilibration, after which 65 μL/well of substrate AMPLITE™ Luciferase Reporter Gene Assay Kit (AAT Bioquest, Sunnyvale, CA) was added. Plates were incubated for 40 minutes at room temperature protected from light, and then luciferase output was read on a CLARIOstar plate reader (BMG Labtech, Germany). […]

RXFP2 [2] = target: T1, RXFP2; assay: HTRF cAMP assay in HEK293T cells stably expressing RXFP2 (HEK-RXFP2); assay type: cell-based; conditions: for % EFF vs. 1 nM INSL3 (b): normalized to 1 nM INSL3 cAMP response; for % EFF vs. 100 nM INSL3 (c): normalized to 100 nM INSL3 cAMP response
Experimental: Compound efficacy and EC50 were determined by measuring cAMP induction in vitro. HEK293T cells stably expressing RXFP2 (HEK-RXFP2) produce cAMP when RXFP2 is activated, which can be measured in an antibody-based immunoassay utilizing a fluorescent readout (cAMP Gs HiRange Kit, PerkinElmer, Waltham, MA). HEK-RXFP2 cells were seeded in 96-well plates in serum-free DMEM and incubated overnight at 37° C., 5% CO2. Plates were then treated with a compound titration up to 25 μM or INSL3 control, in the presence of isobutylmethylxanthine phosphodiesterase inhibitor (IBMX) at 200 μM to amplify the cAMP signal, for 1 hour at 37° C., 5% CO2 before being processed as per kit instructions. Table 7 lists the efficacy and EC50 of compounds tested under different experimental conditions. […] In condition (a), 20,000 cells were seeded per well in the 96 well plate, and efficacy was determined by normalizing the maximum compound cAMP response to the 1 nM INSL3 cAMP response (% Efficacy 1 nM INSL3 (a)). In condition (b), 10,000 cells were seeded per well, and compound response was normalized to the 1 nM INSL3 cAMP response (% Efficacy 1 nM INSL3 (b)). In condition (c), 7,500 cells were seeded per well, compound response was normalized to the 100 nM INSL3 cAMP response, and IBMX was omitted (% Efficacy 100 nM INSL3 (c)). A range is given when compounds were tested multiple times. Where compounds were tested under multiple experimental conditions, the EC50 listed for the corresponding condition is marked (a) through (c) to correlate. When EC50 could not be calculated from the dose-response curve, EC50 is listed as not determined (ND).

HEK293T cells = assay: CellTiter-Glo cytotoxicity assay in HEK293T cells; assay type: cell-based, human; conditions: 24 h, 25 μM and 8.3 μM
Experimental: (§1) Cytotoxicity induced by the compounds in HEK293T cells and primary human calvarial osteoblasts (HCO) (ScienCell Research Laboratories, San Diego, CA) were tested using the […]-GLO™ Luminescent Cell Viability Assay (Promega, Madison, WI). This is a luminescence-based assay that determines viable cells by measuring cellular adenosine triphosphate (ATP) production. The luciferase enzyme requires ATP to catalyze the conversion of beetle luciferin to oxyluciferin and light. Thus, luciferase activity is proportional to ATP accumulation in the cells. For this assay, 96-well flat-bottom opaque plates seeded with HEK293T cells at 5,000 cells/well and HCO cells at 3,000 cells/well in 100 μL/well of growth medium (DMEM, 10% FBS, 1× Penicillin/Streptomycin). After incubating overnight at 37° C., 5% CO2 to allow attachment, cells were treated with 1 μL/well of compound (25-0.1 μM) or DMSO vehicle and incubated an additional 24 hours. Then cells were equilibrated for 30 minutes at room temperature and 100 μL/well of […]-GLO™ Reagent was added. Plates were placed on an orbital shaker for 2 minutes and incubated at room temperature for 10 minutes to stabilize the luminescent signal, which was read immediately after on a CLARIOstar plate reader (BMG Labtech, Germany). […] The HEK293T results represent the means±SEM of 3 technical replicates. The HCO results represent the means±SEM of 3 independent experiments.

[3] = test system: primary human calvarial osteoblasts (HCO); assay: CellTiter-Glo cytotoxicity assay in HCO cells; assay type: cell-based; conditions: 24 h
Experimental: as §1

[4] = condition (b): 10,000 cells/well, IBMX 200 μM
[5] = condition (c): 7,500 cells/well, IBMX omitted

T1 sequence (Q8WXD0 whole entry): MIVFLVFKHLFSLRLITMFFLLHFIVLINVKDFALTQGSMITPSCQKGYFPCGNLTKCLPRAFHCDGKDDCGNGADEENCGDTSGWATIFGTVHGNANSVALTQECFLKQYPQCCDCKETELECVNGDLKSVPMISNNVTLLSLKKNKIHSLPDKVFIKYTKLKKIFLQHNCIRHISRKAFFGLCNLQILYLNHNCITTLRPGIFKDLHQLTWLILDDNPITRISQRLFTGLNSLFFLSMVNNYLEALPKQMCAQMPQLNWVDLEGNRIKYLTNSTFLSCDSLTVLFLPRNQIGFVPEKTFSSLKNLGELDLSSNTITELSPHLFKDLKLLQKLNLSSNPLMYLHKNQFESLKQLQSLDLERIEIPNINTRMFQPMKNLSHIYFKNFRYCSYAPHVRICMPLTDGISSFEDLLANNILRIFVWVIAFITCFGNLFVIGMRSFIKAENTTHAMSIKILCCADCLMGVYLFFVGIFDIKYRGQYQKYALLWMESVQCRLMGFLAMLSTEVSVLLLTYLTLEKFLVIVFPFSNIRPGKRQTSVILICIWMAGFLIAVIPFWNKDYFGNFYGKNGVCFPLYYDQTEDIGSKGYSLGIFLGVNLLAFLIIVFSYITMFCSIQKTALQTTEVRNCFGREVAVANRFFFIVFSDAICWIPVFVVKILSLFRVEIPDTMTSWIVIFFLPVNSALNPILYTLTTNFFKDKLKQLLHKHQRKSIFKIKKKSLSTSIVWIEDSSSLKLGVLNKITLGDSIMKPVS

Row | EC50 (RXFP2 [2]; [5]) | % EFF vs. 100 nM INSL3 (c) (RXFP2 [2]; [5]) | SMILES | other results
1 | 189 nM | 66.75% | O=C1Nc2ccc(-c3cc(C4CC4)cc(C(F)(F)F)c3)cc2C(=O)N2CCN(C(=O)COc3ccc(OC(F)(F)F)cc3Br)C[C@@H]12 [Example 191, (S)-2-(2-(2-bromo-4-(trifluoromethoxy)phenoxy)acetyl)-8-(3-cyclopropyl-5-(trifluoromethyl)phenyl)-1,3,4,12a-tetrahydrobenzo[e]pyrazino[1,2-a][1,4]diazepine-6,12 (2H, 11H)-dione] | 
2 | 77.8 nM | 77.31% | O=C1Nc2ccc(-c3cc(C4CC4)cc(C(F)(F)F)c3)cc2C(=O)N2CCN(C(=O)COc3ccc(OC(F)(F)F)cc3I)C[C@@H]12 [Example 192, (S)-8-(3-cyclopropyl-5-(trifluoromethyl)phenyl)-2-(2-(2-iodo-4-(trifluoromethoxy)phenoxy)acetyl)-1,3,4,12a-tetrahydrobenzo[e]pyrazino[1,2-a][1,4]diazepine-6,12 (2H, 11H)-dione] | 
3 | 8610 nM | 49.35% | O=C1Nc2ccc(-c3cc(C(F)(F)F)cc(C(F)(F)F)c3)cc2CN2CCN(C(=O)COc3ccc(OC(F)(F)F)cc3I)C[C@@H]12 [Example 254, (S)-8-(3,5-bis(trifluoromethyl)phenyl)-2-(2-(2-iodo-4-(trifluoromethoxy)phenoxy)acetyl)-1,3,4,6,11,12a-hexahydrobenzo[e]pyrazino[1,2-a][1,4]diazepin-12 (2H)-one] | 
4 | 62.1 nM | 67.97% | O=C1Nc2ccc(-c3cc(O)cc(C(F)(F)F)c3F)cc2C(=O)N2CCN(C(=O)COc3ccc(OC(F)(F)F)cc3Br)C[C@@H]12 [Example 259, (S)-2-(2-(2-bromo-4-(trifluoromethoxy)phenoxy)acetyl)-8-(2-fluoro-5-hydroxy-3-(trifluoromethyl)phenyl)-1,3,4,12a-tetrahydrobenzo[e]pyrazino[1,2-a][1,4]diazepine-6,12 (2H, 11H)-dione] | 

Second part, the compound before the results:

Row | SMILES | EC50 (RXFP2 [2]; [5]) | % EFF vs. 100 nM INSL3 (c) (RXFP2 [2]; [5]) | other results
5 | Cc1cc(-c2ccc3c(c2)C(=O)N2CCN(C(=O)COc4ccc(OC(F)(F)F)cc4Br)C[C@H]2C(=O)N3)cc(C(F)(F)F)c1 [Example 153, (S)-2-(2-(2-bromo-4-(trifluoromethoxy)phenoxy)acetyl)-8-(3-methyl-5-(trifluoromethyl)phenyl)-1,3,4,12a-tetrahydrobenzo[e]pyrazino[1,2-a][1,4]diazepine-6,12 (2H, 11H)-dione] | 101 to 319 nM | 45.16-86.79% | EC50 (RXFP2 [1]; 3 h treatment, 25 μM-0.21 nM): 24.6 nM; Emax (% Eff vs. 10 nM INSL3) (RXFP2 [1]; relative to 10 nM INSL3 response): 109.6%; EC50 (RXFP2 [2]; [4]): 23.6 to 50.2 nM; % EFF vs. 1 nM INSL3 (b) (RXFP2 [2]; [4]): 149.80-150.94%; cytotoxicity (HEK293T cells): some toxicity; cytotoxicity ([3]; 25 μM): minimal toxicity; cytotoxicity ([3]; lower concentrations than 25 μM): not toxic
6 | Cc1cc(OC(F)F)ccc1OCC(=O)N1CCN2C(=O)c3cc(-c4cccc(C(F)F)c4)ccc3NC(=O)[C@@H]2C1 [Example 177, (S)-2-(2-(4-(difluoromethoxy)-2-methylphenoxy)acetyl)-8-(3-(difluoromethyl)phenyl)-1,3,4,12a-tetrahydrobenzo[e]pyrazino[1,2-a][1,4]diazepine-6,12 (2H, 11H)-dione] |  | 17.49% | 
7 | O=C1Nc2ccc(-c3cccc(C(F)F)c3)cc2C(=O)N2CCN(C(=O)COc3ccc(OC(F)(F)F)cc3Br)C[C@@H]12 [Example 178, (S)-2-(2-(2-Bromo-4-(trifluoromethoxy)phenoxy)acetyl)-8-(3-(difluoromethyl)phenyl)-1,3,4,12a-tetrahydrobenzo[e]pyrazino[1,2-a][1,4]diazepine-6,12 (2H, 11H)-dione] |  | 52.68% | 
8 | O=C1Nc2ccc(-c3cccc(C(F)F)c3)cc2C(=O)N2CCN(C(=O)COc3ccc(OC(F)(F)F)cc3Cl)C[C@@H]12 [Example 179, (S)-2-(2-(2-chloro-4-(trifluoromethoxy)phenoxy)acetyl)-8-(3-(difluoromethyl)phenyl)-1,3,4,12a-tetrahydrobenzo[e]pyrazino[1,2-a][1,4]diazepine-6,12 (2H, 11H)-dione] |  | 28.25% | 
9 | Cc1cc(OC(F)(F)F)ccc1OCC(=O)N1CCN2C(=O)c3cc(-c4cccc(C(F)F)c4)ccc3NC(=O)[C@@H]2C1 [Example 180, (S)-8-(3-(difluoromethyl)phenyl)-2-(2-(2-methyl-4-(trifluoromethoxy)phenoxy)acetyl)-1,3,4,12a-tetrahydrobenzo[e]pyrazino[1,2-a][1,4]diazepine-6,12 (2H, 11H)-dione] |  | 23.13% | 
10 | COc1cc(OC(F)(F)F)ccc1OCC(=O)N1CCN2C(=O)c3cc(-c4cc(C(F)(F)F)cc(C(F)(F)F)c4)ccc3NC(=O)[C@@H]2C1 [Example 185, (S)-8-(3,5-bis(trifluoromethyl)phenyl)-2-(2-(2-methoxy-4-(trifluoromethoxy)phenoxy)acetyl)-1,3,4,12a-tetrahydrobenzo[e]pyrazino[1,2-a][1,4]diazepine-6,12 (2H, 11H)-dione] | 452 nM | 63.16% | 
11 | O=C1Nc2ccc(-c3cccc(C(F)(F)F)c3)cc2C(=O)N2CCN(CCOc3ccccc3)CC12 (centres unmarked) [Example 231, 2-(2-phenoxyethyl)-8-(3-(trifluoromethyl)phenyl)-1,3,4,12a-tetrahydrobenzo[e]pyrazino[1,2-a][1,4]diazepine-6,12 (2H, 11H)-dione] |  |  | % EFF vs. 1 nM INSL3 (a) (RXFP2 [2]; condition (a): 20,000 cells/well, IBMX 200 μM, maximum cAMP response normalized to 1 nM INSL3 response): 0.04%
12 | O=C1Nc2ccc(-c3cccc(C(F)(F)F)c3)cc2C(=O)N2CCN(C(=O)COc3ccc(C(F)(F)F)cc3Cl)C[C@@H]12 [Example 255, (S)-2-(2-(2-chloro-4-(trifluoromethyl)phenoxy)acetyl)-8-(3-(trifluoromethyl)phenyl)-1,3,4,12a-tetrahydrobenzo[e]pyrazino[1,2-a][1,4]diazepine-6,12 (2H, 11H)-dione] |  |  | EC50 (RXFP2 [2]; [4]): 9.7 nM; % EFF vs. 1 nM INSL3 (b) (RXFP2 [2]; [4]): 59.15%
